This note sets out measurements from ChEMBL document CHEMBL6074703, “BODIPYS Based Fluorescent Markers To Monitor Autophagic Lysosomes and Lipid Droplets in TNBC” (ACS Med Chem Lett, 2024).

Usually IC50 stands for the concentration at which inhibition is half-maximal.

Calls of active or inactive are those of the source. The calls are words filed in the database; no cut-off is given here.

Data set [1] has as its system MDA-MB-231. Put plainly: Antiproliferative activity against human MDA-MB-231 cells assessed as reduction in cell viability measured after 48 hrs under dark condition by MTT assay. It counts as functional, cell-based. The settings on record: MDA-MB-231, 48 h. On the technique in general: Formazan colour is commonly taken as a measure of viable cells.
The subject of data set [2] is MDA-MB-231. The experiment in a line: Antiproliferative activity against human MDA-MB-231 cells assessed as reduction in cell viability measured after 48 hrs under light condition by MTT assay. It counts as functional, cell-based. Particulars: MDA-MB-231, 48 h.
A short description of data set [3]: Drug uptake in human MDA-MB-231 cells at 20 uM measured after 24 hrs by confocal microscopy based analysis. It counts as ADME, cell-based. Particulars: mda-mb-231, 24 h.
The nature of data set [4]: Drug uptake in human MDA-MB-231 cells at 20 uM measured after 6 hrs by confocal microscopy based analysis. It counts as ADME, cell-based. The settings on record: mda-mb-231, 6 h.
Data set [5] is described as follows: Drug localization in lysosome of human MDA-MB-231 cells assessed as colocalization at 20 uM incubated for 3 hrs by lyso-tracker blue staining based confocal microscopy analysis. It counts as ADME, subcellular. Particulars: mda-mb-231, 3 h.
The nature of data set [6]: Drug localization in lysosome of human MDA-MB-231 cells assessed as colocalization at 20 uM incubated for 3 hrs by MDH staining based confocal microscopy analysis. It counts as ADME, subcellular. The settings on record: mda-mb-231, 3 h.
Data set [7] relates to MDA-MB-231. Put plainly: Induction of autophagy in human MDA-MB-231 cells assessed as increase in calcium ion release in cytoplasm by measuring blue fluorescence at 10 uM incubated for 3 hrs followed by dark incubation by Fura-2 dye based confocal microscopy based analysis. It counts as functional, cell-based.
Data set [8] is described as follows: Selectivity ratio of IC50 for human MDA-MB-231 cells assessed as reduction in cell viability measured after 48 hrs under dark condition to IC50 human MDA-MB-231 cells assessed as reduction in cell viability measured after 48 hrs under light condition. It counts as functional.
The test system of data set [9] is MDA-MB-231. The experiment in a line: Antiproliferative activity against human MDA-MB-231 cells assessed as reduction in cell viability measured after 48 hrs under dark condition in presence of chloroquine by MTT assay. It counts as functional, cell-based. Particulars: MDA-MB-231, 48 h.
Data set [10] has as its system MDA-MB-231. Put plainly: Antiproliferative activity against human MDA-MB-231 cells assessed as reduction in cell viability measured after 48 hrs under light condition in presence of chloroquine by MTT assay. It counts as functional, cell-based. The settings on record: MDA-MB-231, 48 h.
Data set [11] can be described thus: Selectivity ratio of IC50 for human MDA-MB-231 cells assessed as reduction in cell viability measured after 48 hrs under dark condition in presence of chloroquine to IC50 human MDA-MB-231 cells assessed as reduction in cell viability measured after 48 hrs under light condition in presence of chloroquine. It counts as functional.
Data set [12] concerns MDA-MB-231. Put plainly: Induction of autophagy in human MDA-MB-231 cells assessed as increase in green fluorescence at 20 uM under light irradiation by confocal microscopy based analysis. It counts as functional, cell-based.
The subject of data set [13] is MDA-MB-231. Put plainly: Induction of ROS response in human MDA-MB-231 cells by measuring green fluorescence at 10 uM incubated for 3 hrs under light 24J/cm2 irradiation by H2DCFDA staining based confocal microscopy analysis. It counts as functional, cell-based.
The subject of data set [14] is MDA-MB-231. Put plainly: Induction of ROS response in human MDA-MB-231 cells by measuring green fluorescence at 10 uM incubated for 3 hrs dark condition by H2DCFDA staining based confocal microscopy analysis. It counts as functional, cell-based.

For the compound `CO[C@H]1C[C@@H]2CC[C@@H](C)[C@@](O)(O2)C(=O)C(=O)N2CCCC[C@H]2C(=O)O[C@H]([C@H](C)C[C@@H]2CC[C@@H](O)[C@H](OC)C2)CC(=O)[C@H](C)/C=C(\C)[C@@H](O)[C@@H](OC)C(=O)[C@H](C)C[C@H](C)/C=C/C=C/C=C/1C` [SIROLIMUS], the values for the 50% inhibitory concentration (IC50) in the data set with MDA-MB-231 [1] and with MDA-MB-231 [2] were 11.2 µM and 14.2 µM, respectively.

Turning to `CCCCn1c2ccccc2c2cc(/C=C/c3ccc4c(c3)c3cc(C5=C6C=CC=[N+]6[B-](F)(F)n6cccc65)ccc3n4CCCC)ccc21`, the Drug uptake entry in [3], in [4], in data set [5] and in data set [6] was “Active” in each case. The outcome in the data set with MDA-MB-231 [7], with MDA-MB-231 [12], in the data set with MDA-MB-231 [13] and in the data set with MDA-MB-231 [14] was Active. Further, the half-inhibitory concentration (IC50) in the data set with MDA-MB-231 [1] was greater than 50 µM; in the data set on MDA-MB-231 [2], 17.1 µM; in the data set on MDA-MB-231 [9] it was greater than 50 µM; with MDA-MB-231 [10], 5.57 µM. Moreover, the “Ratio IC50” value in data set [8] is recorded as greater than 2.9; in [11] it was greater than 8.97.

Consider `CCCCn1c2ccc(/C=C/c3ccc(N(c4ccccc4)c4ccccc4)cc3)cc2c2cc(C3=C4C=CC=[N+]4[B-](F)(F)n4cccc43)ccc21`, for which the Drug uptake result in [3] and in data set [4] was “Active” in each case. In addition, the result in the data set with MDA-MB-231 [7], in the data set with MDA-MB-231 [13] and with MDA-MB-231 [14] was Active. Besides, the IC50 with MDA-MB-231 [1] came to 13.2 µM; with MDA-MB-231 [2], 0.95 µM; in the data set on MDA-MB-231 [9], 22.6 µM; in the data set on MDA-MB-231 [10], 1.17 µM. Further, the “Ratio IC50” value in data set [8] is reported as 13.84; in data set [11] it was greater than 19.33.

With `CCN(CC)CCCC(C)Nc1ccnc2cc(Cl)ccc12` (centres undefined) [CHLOROQUINE], the IC50 in the data set on MDA-MB-231 [1] and in the data set on MDA-MB-231 [2] was greater than 50 µM each time.
